Active and inactive are the calls of the source.
Columns and labels:
Mus musculus [1] = experiment: Inhibition of oxalate absorption in sodium oxalate-induced acute hyperoxaluria mouse model at 5 mg/kg, po; type: functional, organism-based
Mus musculus [2] = experiment: Inhibition of oxalate absorption in high oxalate and low calcium diet-induced oxalate nephropathy model of mouse at 5 mg/kg, po assessed as reduction in urine sediment; type: functional, organism-based
[3] = target: T1, Chloride anion exchanger (Mus musculus) (UniProt Q9WVC8); experiment: Inhibition of mouse Slc26a3 transfected in rat FRT cells at 10 uM preincubated with forskolin, 8-Br-cGMP and PMA and measured by fluorescence assay relative to control; type: cell-based
T1 sequence (whole entry): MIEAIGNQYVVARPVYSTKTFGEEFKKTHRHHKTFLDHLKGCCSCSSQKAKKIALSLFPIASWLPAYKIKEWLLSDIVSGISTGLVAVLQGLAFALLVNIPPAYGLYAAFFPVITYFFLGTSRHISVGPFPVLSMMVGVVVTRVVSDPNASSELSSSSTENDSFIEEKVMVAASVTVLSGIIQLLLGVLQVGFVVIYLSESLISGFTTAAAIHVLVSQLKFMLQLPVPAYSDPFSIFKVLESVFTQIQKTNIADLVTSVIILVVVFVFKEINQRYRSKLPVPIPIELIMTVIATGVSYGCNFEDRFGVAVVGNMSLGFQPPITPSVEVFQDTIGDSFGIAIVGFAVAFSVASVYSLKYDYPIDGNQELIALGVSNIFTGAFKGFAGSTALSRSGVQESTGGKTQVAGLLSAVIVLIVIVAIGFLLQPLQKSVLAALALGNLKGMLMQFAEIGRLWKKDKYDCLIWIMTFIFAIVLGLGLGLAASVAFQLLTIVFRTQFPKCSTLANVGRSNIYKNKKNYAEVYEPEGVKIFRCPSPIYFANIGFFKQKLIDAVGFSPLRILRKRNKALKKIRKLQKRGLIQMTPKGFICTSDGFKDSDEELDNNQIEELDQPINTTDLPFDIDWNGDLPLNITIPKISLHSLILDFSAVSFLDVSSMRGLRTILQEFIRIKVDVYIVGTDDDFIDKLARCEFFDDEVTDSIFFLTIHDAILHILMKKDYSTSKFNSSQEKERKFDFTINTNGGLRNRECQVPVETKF

Mus musculus [4] = experiment: In vivo inhibition of slc26a3 in loperamide-induced constipation model of female CD-1 mouse at 5 mg/kg, po assessed as reduction in stool weight; type: functional, organism-based
Mus musculus [5] = experiment: In vivo inhibition of slc26a3 in loperamide-induced constipation model of female CD-1 mouse at 5 mg/kg, po assessed as reduction in pellet number; type: functional, organism-based
Mus musculus [6] = species on record: Mus musculus; experiment: Inhibition of mouse Slc26a9-mediated Cl-/ I- exchange at 10 uM measured by cell-based fluorescence assay
Mus musculus [7] = species on record: Mus musculus; experiment: Inhibition of mouse CFTR at 10 uM measured by cell-based fluorescence assay
HBE = experiment: Inhibition of CFTR in human HBE cells at 10 uM pretreated with forskolin assessed as effect on short-circuit current responses; type: cell-based
Mus musculus [8] = experiment: In vivo inhibition of slc26a3 in loperamide-induced constipation model of cystic fibrosis mouse at 5 mg/kg, po assessed as reduction in stool water content; type: functional, organism-based
Colon = experiment: Inhibition of fluid absorption in distal colonic loop isolated from female CD-1 mouse at 10 uM assessed as effect on reduction in loop weight/length ratio in presence of 10 microM tenapanor; type: functional, tissue-based
Mus musculus [9] = experiment: In vivo inhibition of slc26a3 in loperamide-induced constipation model of cystic fibrosis mouse at 5 mg/kg, po assessed as reduction in pellet number; type: functional, organism-based
Mus musculus [10] = experiment: Inhibition of oxalate absorption in high oxalate and low calcium diet-induced oxalate nephropathy model of mouse at 5 mg/kg, po assessed as reduction in crystal deposition in kidney; type: functional, organism-based
Jejunum [11] = experiment: Inhibition of fluid absorption in mid-jejunal loops isolated from female CD-1 mouse at 10 uM assessed as effect on reduction in loop weight/length ratio; type: functional, tissue-based
Mus musculus [12] = experiment: Inhibition of oxalate absorption in high oxalate and low calcium diet-induced oxalate nephropathy model of mouse at 5 mg/kg, po assessed as reduction in kidney damage; type: functional, organism-based
Mus musculus [13] = experiment: In vivo inhibition of slc26a3 in loperamide-induced constipation model of female CD-1 mouse at 5 mg/kg, po co-administered with tenapanor assessed as reduction in stool weight; type: functional, organism-based
Pendrin (Mus musculus) = target: T2, Pendrin (Mus musculus) (UniProt Q9R155); experiment: Inhibition of mouse Slc26a4-mediated Cl-/ I- exchange at 10 uM measured by cell-based fluorescence assay
T2 sequence (whole entry): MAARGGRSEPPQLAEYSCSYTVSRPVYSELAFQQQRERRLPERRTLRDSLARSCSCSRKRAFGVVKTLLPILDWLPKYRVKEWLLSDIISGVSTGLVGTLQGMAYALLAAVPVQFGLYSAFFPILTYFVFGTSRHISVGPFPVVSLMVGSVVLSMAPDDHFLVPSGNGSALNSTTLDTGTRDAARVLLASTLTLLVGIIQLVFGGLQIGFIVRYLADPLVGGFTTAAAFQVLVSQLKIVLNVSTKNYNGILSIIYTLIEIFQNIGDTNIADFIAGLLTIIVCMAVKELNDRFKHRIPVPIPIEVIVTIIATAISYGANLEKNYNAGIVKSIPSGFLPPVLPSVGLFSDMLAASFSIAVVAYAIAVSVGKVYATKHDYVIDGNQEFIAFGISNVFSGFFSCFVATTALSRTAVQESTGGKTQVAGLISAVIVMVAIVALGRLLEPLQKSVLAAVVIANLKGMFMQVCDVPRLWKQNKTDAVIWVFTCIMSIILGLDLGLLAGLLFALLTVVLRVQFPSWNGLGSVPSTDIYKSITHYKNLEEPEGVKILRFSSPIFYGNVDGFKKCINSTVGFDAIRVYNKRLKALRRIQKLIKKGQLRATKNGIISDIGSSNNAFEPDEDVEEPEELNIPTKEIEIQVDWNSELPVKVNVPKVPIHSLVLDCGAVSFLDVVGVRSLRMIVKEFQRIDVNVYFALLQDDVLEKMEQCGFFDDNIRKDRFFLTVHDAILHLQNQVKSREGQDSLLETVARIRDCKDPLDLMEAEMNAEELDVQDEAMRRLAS

Jejunum [14] = experiment: Inhibition of fluid absorption in mid-jejunal loops isolated from female CD-1 mouse at 10 uM assessed as effect on reduction in loop weight/length ratio in presence of 10 microM tenapanor; type: functional, tissue-based
FRT = experiment: Inhibition of Slc26a3-mediated Cl-/ I- exchange in rat FRT cells assessed as half-life measured by fluorescence assay; type: cell-based
Mus musculus [15] = experiment: In vivo inhibition of slc26a3 in loperamide-induced constipation model of female CD-1 mouse at 5 mg/kg, po co-administered with tenapanor assessed as reduction in stool water content; type: functional, organism-based
Mus musculus [16] = experiment: In vivo inhibition of slc26a3 in loperamide-induced constipation model of female CD-1 mouse at 5 mg/kg, po assessed as reduction in stool water content; type: functional, organism-based
Mus musculus [17] = experiment: In vivo inhibition of slc26a3 in loperamide-induced constipation model of cystic fibrosis mouse at 5 mg/kg, po assessed as reduction in stool weight; type: functional, organism-based

Cc1c(CC(=O)O)c(=O)oc2c(C)c(OCc3cccc(Br)c3)ccc12
30 s: T1/2 (FRT)
active: inhibition (Mus musculus [1]) | inhibition (Mus musculus [2]) | inhibition (Mus musculus [4]) | inhibition (Mus musculus [5]) | inhibition (Mus musculus [8]) | inhibition (Colon) | inhibition (Mus musculus [9]) | inhibition (Mus musculus [10]) | inhibition (Jejunum [11]) | inhibition (Mus musculus [12]) | inhibition (Mus musculus [13]) | inhibition (Jejunum [14]) | inhibition (Mus musculus [15]) | inhibition (Mus musculus [16]) | inhibition (Mus musculus [17])
inactive: inhibition (Mus musculus [6]) | inhibition (Mus musculus [7]) | inhibition (HBE) | inhibition (Pendrin (Mus musculus))
> 50%: inhibition [3]

Source: ChEMBL document CHEMBL5052835, “Slc26a3 inhibitors and use thereof” (2021)
